Where two headings read alike, the source gives them in different places. Bridges are numbered along the chain shown (N, C = ends). Where no end group is shown, it is not given here.
Experiments:
[1] = 37° C., cited from earlier work
[2] = molecular target: guanylate cyclase C (GC-C) receptor (UniProt P25092 24-1073, limits assumed); assay: cell-based or functional assay
Chain of guanylate cyclase C (GC-C) receptor (P25092 24-1073 limits assumed): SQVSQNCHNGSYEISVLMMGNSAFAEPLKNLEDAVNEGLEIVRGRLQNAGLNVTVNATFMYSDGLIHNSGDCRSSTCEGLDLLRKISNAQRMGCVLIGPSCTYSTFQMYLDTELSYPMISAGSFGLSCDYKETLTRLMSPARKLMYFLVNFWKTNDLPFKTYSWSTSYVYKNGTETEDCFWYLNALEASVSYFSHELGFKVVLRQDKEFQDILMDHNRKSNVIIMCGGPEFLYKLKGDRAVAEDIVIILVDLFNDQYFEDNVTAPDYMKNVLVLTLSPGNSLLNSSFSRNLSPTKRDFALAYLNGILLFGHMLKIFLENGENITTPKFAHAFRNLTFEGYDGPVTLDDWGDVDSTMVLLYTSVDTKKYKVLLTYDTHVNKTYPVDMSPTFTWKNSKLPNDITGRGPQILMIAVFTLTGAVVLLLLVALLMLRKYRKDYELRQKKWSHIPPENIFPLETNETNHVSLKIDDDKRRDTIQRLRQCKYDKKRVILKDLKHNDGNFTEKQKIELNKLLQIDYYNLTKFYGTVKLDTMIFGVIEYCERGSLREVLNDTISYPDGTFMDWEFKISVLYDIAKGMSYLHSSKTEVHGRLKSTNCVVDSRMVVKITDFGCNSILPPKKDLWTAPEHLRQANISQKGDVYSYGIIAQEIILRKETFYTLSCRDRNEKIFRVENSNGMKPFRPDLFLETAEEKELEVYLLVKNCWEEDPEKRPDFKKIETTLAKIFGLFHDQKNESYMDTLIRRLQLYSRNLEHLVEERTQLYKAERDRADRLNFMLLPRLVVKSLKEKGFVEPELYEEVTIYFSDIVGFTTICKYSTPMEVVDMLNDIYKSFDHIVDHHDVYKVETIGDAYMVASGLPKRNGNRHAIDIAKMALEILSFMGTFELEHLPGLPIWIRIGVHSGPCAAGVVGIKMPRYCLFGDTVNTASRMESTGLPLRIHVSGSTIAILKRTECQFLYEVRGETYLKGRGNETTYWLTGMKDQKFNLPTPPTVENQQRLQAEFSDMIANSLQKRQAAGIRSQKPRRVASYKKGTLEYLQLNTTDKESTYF

cyclic GMP synthesis in T84 cells, potency against huUgnA [2]	Molecule	half life of each stereoisomer (A/B interconversion) [1]	half life of each stereoisomer (A/B interconversion) ([1]; listed as human Ugn)
	CC(C)C[C@H](NC(=O)[C@@H]1CSSC[C@@H]2NC(=O)[C@H](CC(C)C)NC(=O)[C@H](CCC(=O)O)NC(=O)[C@@H](NC(=O)[C@H](CC(=O)O)NC(=O)[C@H](CC(=O)O)NC(=O)[C@@H](N)CC(N)=O)CSSC[C@H](NC(=O)[C@H](C)NC(=O)[C@H](C(C)C)NC(=O)[C@H](CC(N)=O)NC(=O)[C@H](C(C)C)NC2=O)C(=O)N[C@@H]([C@@H](C)O)C(=O)NCC(=O)N1)C(=O)O [huUgn, Asn Asp Asp Cys Glu Leu Cys Val Asn Val Ala Cys Thr Gly Cys Leu]	approximately 2 days	about 2 days
> 100 fold less potent than huUgnA	NDDCELCVNVACTGCL (disulfide 4-12, 7-15) [Human UgnB (B isoform of human uroguanylin)]		
